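All cell lines were grown in 96-well plates and treated with compound for 48 hours. GI50 = concentration required for 50% inhibition of growth. TGI is the concentration that stops growth completely.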 Bounds are passed on as bounds.

Drawing on PubChem BioAssay (NCI), this text covers GI50 and TGI for ten compounds.

Some test systems named below: U251 CNS; MOLT-4 leukemia; CCRF-CEM leukemia; HL-60(TB) leukemia; PC-3 prostate; 786-0 renal; SW-620 colon; HCT-116 colon; A549 NSCLC; HCT-15 colon.
Test in all cases: growth of human tumour cells (NCI), 48 h

In the case of `CCOC(=O)c1c(C)nc2c(c1N)CC(=O)N2Cc1ccc(OC)cc1`, the GI50 was 4.14 µM in the assay with U251 CNS; 81.3 µM with MOLT-4 leukemia; greater than 100 µM with CCRF-CEM leukemia; greater than 100 µM in the assay with HL-60(TB) leukemia; greater than 100 µM with PC-3 prostate; 3.45 µM in the assay on 786-0 renal. Also, the GI50 in the assay on SW-620 colon is greater than 100 µM. Further, the TGI is greater than 100 µM with U251 CNS; greater than 100 µM in the assay on MOLT-4 leukemia; greater than 100 µM with CCRF-CEM leukemia; greater than 100 µM with HL-60(TB) leukemia; greater than 100 µM in the assay with PC-3 prostate; 27.8 µM in the assay with 786-0 renal. This compound also displayed a TGI with SW-620 colon greater than 100 µM.

As to `CC1(C)C2CCC13C(=O)C1OC3(C2)C2C(=O)c3cc4ccccc4cc3C(=O)C12` (centres undefined), the GI50 with HCT-116 colon is 12 µM; with U251 CNS, 15.1 µM; with MOLT-4 leukemia, 1.76 µM; with A549 NSCLC, 26.2 µM; with CCRF-CEM leukemia, 3.42 µM; with HL-60(TB) leukemia, 4.89 µM. In addition, the results for the GI50 with PC-3 prostate, in the assay with 786-0 renal and with HCT-15 colon were 3.85 µM, 6 µM and 9.28 µM, respectively. Moreover, the TGI was greater than 100 µM in the assay with HCT-116 colon; 34.4 µM in the assay on U251 CNS; 19.2 µM in the assay with MOLT-4 leukemia; 76.3 µM in the assay with A549 NSCLC; 25.7 µM with CCRF-CEM leukemia; 26.7 µM in the assay on HL-60(TB) leukemia. The TGI in the assay on PC-3 prostate turned out to be 27.8 µM; in the assay with 786-0 renal it was 36.6 µM; in the assay with HCT-15 colon, 68.8 µM.

As to `O=C(c1ccccc1)c1ccccc1-c1ccccc1`, the GI50 with HCT-116 colon is 3.17 µM; in the assay on U251 CNS, 4.21 µM; with A549 NSCLC, 4.87 µM; in the assay with PC-3 prostate, 3.67 µM; with 786-0 renal, 10.6 µM; with HCT-15 colon it was 2.74 µM. Besides, in the assay on SW-620 colon, the GI50 was 1.54 µM. Besides, the TGI with HCT-116 colon is 30.1 µM; in the assay with U251 CNS, 46.2 µM; in the assay with A549 NSCLC, greater than 100 µM; with PC-3 prostate, greater than 100 µM; in the assay with 786-0 renal it was 90.7 µM; in the assay on HCT-15 colon, greater than 100 µM. The TGI in the assay with SW-620 colon is greater than 100 µM.

Turning to `C=C(CN1C(=O)CN(C)C1=O)c1ccc(C(=O)Nc2ccccc2N)cc1`, the GI50 was 6.7 µM in the assay on HCT-116 colon; 7.29 µM with MOLT-4 leukemia; 25.4 µM in the assay on A549 NSCLC; 11.6 µM with CCRF-CEM leukemia; 4.93 µM with HL-60(TB) leukemia; 12 µM in the assay on PC-3 prostate. The GI50 in the assay with 786-0 renal was 30.1 µM; with HCT-15 colon, 40.9 µM; with SW-620 colon, 19.4 µM. The TGI with HCT-116 colon was 36.3 µM; with MOLT-4 leukemia, 63.3 µM; in the assay on A549 NSCLC it was greater than 100 µM; in the assay with CCRF-CEM leukemia it was 87.3 µM; with HL-60(TB) leukemia it was 61.1 µM; in the assay with PC-3 prostate it was greater than 100 µM. For the same compound, the TGI in the assay with 786-0 renal, in the assay on HCT-15 colon and with SW-620 colon was greater than 100 µM throughout.

For `CN1CCC2(CC1)ONC1=NCCN12`, the GI50 with HCT-116 colon was 32.4 µM; with U251 CNS it was 29.4 µM; in the assay on MOLT-4 leukemia, 23.6 µM; in the assay on CCRF-CEM leukemia it was 13.4 µM; with PC-3 prostate it was 26 µM; in the assay with 786-0 renal it was 15.4 µM. The GI50 with HCT-15 colon is 24.1 µM; in the assay with SW-620 colon, 51.8 µM. Moreover, the TGI in the assay with HCT-116 colon was greater than 100 µM; with U251 CNS, greater than 100 µM; with MOLT-4 leukemia, greater than 100 µM; in the assay with CCRF-CEM leukemia it was 42.3 µM; with PC-3 prostate it was 66.5 µM; with 786-0 renal, 53.8 µM. The TGI with HCT-15 colon and in the assay on SW-620 colon was greater than 100 µM throughout.

In the case of `O=C(COc1ccc(Cl)cc1)N1N=C(c2ccc(Cl)cc2)CC1(O)c1ccccc1` (centres undefined), the TGI in the assay on HCT-116 colon was 26.3 µM; in the assay with U251 CNS it was 38.3 µM; with MOLT-4 leukemia, 30.6 µM; in the assay on A549 NSCLC, 34.7 µM; in the assay with CCRF-CEM leukemia, greater than 100 µM; in the assay with HL-60(TB) leukemia, 28 µM. In addition, the TGI was 28.3 µM with 786-0 renal, greater than 58.1 µM with HCT-15 colon and greater than 69.3 µM in the assay with SW-620 colon.

With `O=C(O)CCN(CCCCN(CCC(=O)O)CCC(=O)O)CCC(=O)O`, the TGI in the assay with HCT-116 colon, with U251 CNS, with MOLT-4 leukemia, in the assay with A549 NSCLC, in the assay on CCRF-CEM leukemia and in the assay on HL-60(TB) leukemia was greater than 100 µM throughout. Besides, the TGI in the assay on 786-0 renal, in the assay on HCT-15 colon and with SW-620 colon was greater than 100 µM each time.

On to `Cc1c[n+](=O)c2ccccc2n1[O-]`, for which the TGI with HCT-116 colon, in the assay on U251 CNS, with MOLT-4 leukemia, in the assay with A549 NSCLC, in the assay on CCRF-CEM leukemia and with PC-3 prostate was greater than 100 µM in each case. Further, the TGI in the assay on 786-0 renal, in the assay on HCT-15 colon and in the assay on SW-620 colon was greater than 100 µM throughout.

Consider `COC(=O)c1ccc(-c2nc3cc(Cl)c(Cl)cc3nc2C#N)cc1`, for which the GI50 was greater than 100 µM in the assay with HCT-116 colon; 42 µM with U251 CNS; greater than 100 µM with MOLT-4 leukemia; greater than 100 µM in the assay with A549 NSCLC; 31.6 µM with CCRF-CEM leukemia; greater than 100 µM in the assay on PC-3 prostate. The GI50 with 786-0 renal, in the assay with HCT-15 colon and in the assay on SW-620 colon was greater than 100 µM in each case. The TGI in the assay on HCT-116 colon, with U251 CNS, in the assay on MOLT-4 leukemia, with A549 NSCLC, with CCRF-CEM leukemia and with PC-3 prostate was greater than 100 µM each time. Besides, the TGI in the assay on 786-0 renal, in the assay with HCT-15 colon and with SW-620 colon was greater than 100 µM each time.

With `CCOC(=O)C12CCCC1(O)N(NC(=O)OC(C)(C)C)C(C)=C2C(=O)OC` (centres undefined), the TGI with HCT-116 colon, in the assay on U251 CNS, in the assay on MOLT-4 leukemia, in the assay on A549 NSCLC, with CCRF-CEM leukemia and in the assay with HL-60(TB) leukemia was greater than 100 µM throughout. For the same compound, the TGI in the assay with 786-0 renal, in the assay with HCT-15 colon and in the assay on SW-620 colon was greater than 100 µM in each case.
